According to patent US10150728B2, “Alkylene derivatives” (Shionogi & Co., Ltd., priority 2013, dated 2018):

Target: recombinant human ACC2 (Homo sapiens (Human), UniProt O00763)
Experiment: Measurement of inhibitory activity on human ACC2 (MALDI-TOF MS, acetyl CoA to malonyl CoA conversion)
Type: biochemical
Details: Tables 155-159
Procedure, shortened: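 His-tagged human ACC2 (residues 27–2458) from baculovirus-infected Sf-9 cells was preincubated 1 h in pH 7.4 HEPES-KOH buffer with MgCl2, 6-10 mM potassium citrate, glutathione and BSA. Substrate solution held 1 mM ATP, 0.8 mM acetyl CoA and 25-50 mM bicarbonate. After 1–3 h at room temperature, malonyl CoA/(malonyl+acetyl CoA) was read by negative-mode MALDI-TOF MS; citrate, bicarbonate and time varied by enzyme lot.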

Chain of recombinant human ACC2 (O00763 27-2458): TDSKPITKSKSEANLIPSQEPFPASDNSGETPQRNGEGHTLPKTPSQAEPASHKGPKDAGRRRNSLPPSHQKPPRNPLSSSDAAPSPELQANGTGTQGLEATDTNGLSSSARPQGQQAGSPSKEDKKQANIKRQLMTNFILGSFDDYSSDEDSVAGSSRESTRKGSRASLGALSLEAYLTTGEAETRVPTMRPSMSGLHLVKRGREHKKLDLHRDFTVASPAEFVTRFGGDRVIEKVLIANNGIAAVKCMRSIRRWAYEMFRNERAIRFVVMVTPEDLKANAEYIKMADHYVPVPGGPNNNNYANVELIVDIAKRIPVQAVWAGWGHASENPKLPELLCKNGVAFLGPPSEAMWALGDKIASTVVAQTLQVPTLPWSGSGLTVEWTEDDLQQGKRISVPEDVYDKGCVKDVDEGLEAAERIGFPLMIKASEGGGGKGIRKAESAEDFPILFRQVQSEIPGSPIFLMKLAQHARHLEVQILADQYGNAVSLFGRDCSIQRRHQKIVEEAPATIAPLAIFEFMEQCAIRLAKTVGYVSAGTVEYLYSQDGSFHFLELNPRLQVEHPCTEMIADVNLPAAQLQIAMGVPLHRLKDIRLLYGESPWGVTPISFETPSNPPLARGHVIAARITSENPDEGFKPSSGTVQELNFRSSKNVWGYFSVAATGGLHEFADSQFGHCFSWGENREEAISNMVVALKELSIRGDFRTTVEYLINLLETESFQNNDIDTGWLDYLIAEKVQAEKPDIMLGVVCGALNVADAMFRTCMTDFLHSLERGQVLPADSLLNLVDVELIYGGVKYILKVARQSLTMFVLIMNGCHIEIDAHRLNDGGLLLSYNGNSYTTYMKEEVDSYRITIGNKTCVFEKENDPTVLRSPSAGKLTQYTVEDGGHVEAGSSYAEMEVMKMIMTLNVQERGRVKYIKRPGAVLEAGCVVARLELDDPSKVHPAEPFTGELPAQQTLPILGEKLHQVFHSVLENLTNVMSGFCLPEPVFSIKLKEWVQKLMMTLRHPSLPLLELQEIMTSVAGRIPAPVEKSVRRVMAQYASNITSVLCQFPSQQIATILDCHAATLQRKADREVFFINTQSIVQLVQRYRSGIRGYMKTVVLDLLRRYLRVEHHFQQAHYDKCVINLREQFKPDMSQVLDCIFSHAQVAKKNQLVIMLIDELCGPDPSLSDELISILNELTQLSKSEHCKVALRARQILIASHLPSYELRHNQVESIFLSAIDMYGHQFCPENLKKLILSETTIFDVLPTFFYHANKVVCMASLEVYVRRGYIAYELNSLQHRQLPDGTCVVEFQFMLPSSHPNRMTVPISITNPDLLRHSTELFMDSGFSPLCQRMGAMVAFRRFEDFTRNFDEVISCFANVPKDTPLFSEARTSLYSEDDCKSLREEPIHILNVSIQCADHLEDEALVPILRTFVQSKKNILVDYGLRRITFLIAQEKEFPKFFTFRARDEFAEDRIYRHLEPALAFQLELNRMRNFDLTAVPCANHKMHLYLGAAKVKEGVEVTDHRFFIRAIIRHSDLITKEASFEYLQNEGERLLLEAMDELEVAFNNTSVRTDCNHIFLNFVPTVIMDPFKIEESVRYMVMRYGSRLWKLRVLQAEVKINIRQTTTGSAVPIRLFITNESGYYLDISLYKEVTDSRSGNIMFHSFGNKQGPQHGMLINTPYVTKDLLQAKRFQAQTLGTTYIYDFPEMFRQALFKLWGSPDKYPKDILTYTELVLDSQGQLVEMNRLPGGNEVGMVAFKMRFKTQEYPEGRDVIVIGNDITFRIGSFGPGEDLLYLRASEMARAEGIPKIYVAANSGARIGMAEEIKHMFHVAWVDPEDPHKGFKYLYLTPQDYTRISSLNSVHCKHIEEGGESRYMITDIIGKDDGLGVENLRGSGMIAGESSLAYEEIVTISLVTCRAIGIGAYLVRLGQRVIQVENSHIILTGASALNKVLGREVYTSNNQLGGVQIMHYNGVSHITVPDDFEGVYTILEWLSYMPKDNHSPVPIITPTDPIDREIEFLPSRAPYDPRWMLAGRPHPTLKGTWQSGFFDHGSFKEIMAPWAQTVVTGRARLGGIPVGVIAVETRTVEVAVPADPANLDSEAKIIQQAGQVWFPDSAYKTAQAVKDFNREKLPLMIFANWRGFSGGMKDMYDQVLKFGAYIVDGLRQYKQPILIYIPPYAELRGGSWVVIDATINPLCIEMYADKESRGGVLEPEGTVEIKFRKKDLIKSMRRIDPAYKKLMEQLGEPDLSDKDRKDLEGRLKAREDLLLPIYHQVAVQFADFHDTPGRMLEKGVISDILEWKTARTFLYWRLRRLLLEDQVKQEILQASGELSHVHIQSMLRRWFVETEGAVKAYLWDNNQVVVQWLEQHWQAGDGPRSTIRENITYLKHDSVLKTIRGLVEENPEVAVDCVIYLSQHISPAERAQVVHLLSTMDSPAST

Row | SMILES | IC50
1 | CCCOc1nc2ccc(O[C@H]3CC[C@H](OC[C@H](C)NC(C)=O)CC3)nc2n1C [Compound I-505] | 12 nM
2 | CCOc1nc2ccc(O[C@H]3CC[C@H](OC[C@H](C)NC(C)=O)CC3)cc2n1C [Compound I-506] | 249 nM
3 | CCOc1nc2ccc(O[C@H]3CC[C@H](OC[C@H](C)NC(C)=O)CC3)c(F)c2n1C [Compound I-507] | 132 nM
4 | CC(=O)N[C@@H](C)CO[C@H]1CC[C@H](Oc2cc(C)c3nc(Oc4ccc(F)cc4)n(C)c3n2)CC1 [Compound I-508] | 81 nM
5 | CC(=O)N[C@@H](C)CO[C@H]1CC[C@H](Oc2cc(C)c3nc(OCC4CC4)n(C)c3n2)CC1 [Compound I-509] | 225 nM
6 | CCOc1nc2cc(Cl)c(O[C@H]3CC[C@H](OC[C@H](C)NC(C)=O)CC3)nc2n1C [Compound I-510] | 28 nM
7 | CC(=O)N[C@@H](C)CO[C@H]1CC[C@H](Oc2ccc3nc(OC4CCC(F)(F)CC4)n(C)c3n2)CC1 [Compound I-511] | 22 nM
8 | CC(=O)N[C@@H](C)CO[C@H]1CC[C@H](Oc2ccc3nc(CC4CC4)n(C)c3n2)CC1 [Compound I-512] | 110 nM
9 | CC(=O)N[C@@H](C)CO[C@H]1CC[C@H](Oc2ccc3nc(C(C)C)n(C)c3n2)CC1 [Compound I-513] | 260 nM
10 | CC(=O)N[C@@H](C)CO[C@H]1CC[C@H](Oc2ccc3nc(CCC4CC4)n(C)c3n2)CC1 [Compound I-514] | 32 nM
11 | CC(=O)N[C@@H](C)CO[C@H]1CC[C@H](Oc2ccc3nc(CCC(F)(F)F)n(C)c3n2)CC1 [Compound I-515] | 41 nM
12 | CCOc1nc2cc(F)c(O[C@H]3CC[C@H](OC[C@H](C)NC(C)=O)CC3)nc2n1C [Compound I-516] | 27 nM
13 | CCCOc1nc2cc(F)c(O[C@H]3CC[C@H](OC[C@H](C)NC(C)=O)CC3)nc2n1C [Compound I-517] | 14 nM
14 | CC(=O)N[C@@H](C)CO[C@H]1CC[C@H](Oc2nc3c(cc2F)nc(OC2CC(F)(F)C2)n3C)CC1 [Compound I-518] | 13 nM
15 | CCOc1nc2ccc(OC[C@H]3C[C@H](OC[C@H](C)NC(C)=O)C3)nc2n1C [Compound I-519] | 170 nM
16 | CCOc1nc2ccc(OC[C@H]3C[C@@H](OC[C@H](C)NC(C)=O)C3)nc2n1C [Compound I-520] | 315 nM
17 | CC(=O)N[C@@H](C)CO[C@H]1CC[C@H](Oc2ncc(-c3ncc(F)cn3)cc2F)CC1 [Compound I-521] | 20 nM

Row | SMILES | IC50
18 | CC(=O)N[C@@H](C)CO[C@H]1CC[C@H](Oc2ncc(-c3ncc(F)cn3)cc2Cl)CC1 [Compound I-522] | 8 nM
19 | CC(=O)N[C@@H](C)CO[C@H]1CC[C@H](Oc2ncc(-c3ncccn3)cc2F)CC1 [Compound I-523] | 105 nM
20 | CC(=O)N[C@@H](C)CO[C@H]1CC[C@H](Oc2ncc(-c3ncc(C#N)cn3)cc2F)CC1 [Compound I-524] | 64 nM
21 | CC(=O)N[C@@H](C)CO[C@H]1CC[C@H](Oc2ncc(-c3ncc(F)cn3)cc2C#N)CC1 [Compound I-525] | 41 nM
22 | CC(=O)N[C@@H](C)CO[C@H]1CC[C@H](Oc2ncc(-c3ncc(Cl)cn3)cc2F)CC1 [Compound I-526] | 13 nM
23 | COc1cc(-c2ncc(F)cn2)cnc1O[C@H]1CC[C@H](OC[C@H](C)NC(C)=O)CC1 [Compound I-527] | 158 nM
24 | COc1cnc(-c2cnc(O[C@H]3CC[C@H](OC[C@H](C)NC(C)=O)CC3)c(F)c2)nc1 [Compound I-528] | 61 nM
25 | CC(=O)N[C@@H](C)CO[C@H]1CC[C@H](Oc2ncc(-c3ncc(C(C)C)cn3)cc2F)CC1 [Compound I-529] | 172 nM
26 | CC(=O)N[C@@H](C)CO[C@H]1CC[C@H](Oc2ncc(-c3ncc(C#N)cn3)cc2C#N)CC1 [Compound I-530] | 196 nM
27 | CC(=O)N[C@@H](C)CO[C@H]1CC[C@H](Oc2ncc(-c3nccc(C#N)n3)cc2F)CC1 [Compound I-531] | 481 nM
28 | CC(=O)N[C@@H](C)CO[C@H]1CC[C@H](Oc2ncc(-c3ncc(F)cn3)cc2C)CC1 [Compound I-532] | 6 nM
29 | CCc1cnc(-c2cnc(O[C@H]3CC[C@H](OC[C@H](C)NC(C)=O)CC3)c(F)c2)nc1 [Compound I-533] | 102 nM
30 | CC(=O)N[C@@H](C)CO[C@H]1CC[C@H](Oc2ncc(-c3ncc(C)cn3)cc2F)CC1 [Compound I-534] | 67 nM
31 | CC(=O)N[C@@H](C)CO[C@H]1CC[C@H](Oc2ncc(-c3ncc(Cl)cn3)cc2C#N)CC1 [Compound I-535] | 30 nM
32 | CC(=O)N[C@@H](C)CO[C@H]1CC[C@H](Oc2ncc(-c3ncc(C4CC4)cn3)cc2F)CC1 [Compound I-536] | 28 nM
33 | CC(=O)N[C@@H](C)CO[C@H]1CC[C@H](Oc2ncc(-c3ncc(F)cn3)cc2OCc2ccccc2)CC1 [Compound I-537] | 975 nM

Continued, values first:

Row | IC50 | SMILES
34 | 71 nM | C[C@@H](CO[C@H]1CC[C@H](Oc2ncc(-c3ncc(F)cn3)cc2F)CC1)NC(N)=O [Compound I-538]
35 | 92 nM | CCOC(=O)c1cc(C(=O)N[C@@H](C)CO[C@H]2CC[C@H](Oc3ncc(-c4ncc(F)cn4)cc3F)CC2)ccn1 [Compound I-539]
36 | 323 nM | C[C@@H](CO[C@H]1CC[C@H](Oc2ncc(-c3ncc(F)cn3)cc2F)CC1)NS(C)(=O)=O [Compound I-540]
37 | 130 nM | COC(=O)N[C@@H](C)CO[C@H]1CC[C@H](Oc2ncc(-c3ncc(F)cn3)cc2F)CC1 [Compound I-541]
38 | 6 nM | CC(=O)N[C@@H](C)CO[C@H]1CC[C@H](Oc2ncc(-c3ncc(F)cn3)cc2F)CC1 [Compound I-542]
39 | 14 nM | CC(=O)N[C@@H](C)CC[C@H]1CC[C@H](Oc2ncc(-c3ncc(C(F)(F)F)cn3)cc2F)CC1 [Compound I-543]
40 | 4 nM | CC(=O)N[C@@H](C)CC[C@H]1CC[C@H](Oc2ncc(-c3ncc(Cl)cn3)cc2F)CC1 [Compound I-544]
41 | 46 nM | CC(=O)N[C@@H](C)CO[C@H]1CC[C@H](Oc2ncc(-c3ncc(C(F)(F)F)cn3)cc2F)CC1 [Compound I-545]
42 | 66 nM | CC(=O)N[C@@H](C)CO[C@H]1CC[C@H](Oc2ncc(-c3ncc(C(F)(F)F)cn3)cc2C#N)CC1 [Compound I-546]
43 | 104 nM | CC(=O)N[C@@H](C)CO[C@H]1CC[C@H](Oc2nc3ccc(Br)cc3s2)CC1 [Compound I-547]
44 | 124 nM | CC(=O)N[C@@H](C)CO[C@H]1CC[C@H](Oc2ncc3cc(OCC4CC4)ccc3n2)CC1 [Compound I-548]
45 | 37 nM | CC(=O)N[C@@H](C)CO[C@H]1CC[C@H](Oc2nc3cc(Br)ccc3s2)CC1 [Compound I-549]
46 | 21 nM | CC(=O)N[C@@H](C)CO[C@H]1CC[C@H](Oc2nc3ccc(OCC4CC4)cc3s2)CC1 [Compound I-550]
47 | 15 nM | CC(=O)N[C@@H](C)CO[C@H]1CC[C@H](Oc2nc3cnc(OCC(F)F)cc3s2)CC1 [Compound I-551]
48 | 13 nM | CC(=O)N[C@@H](C)CO[C@H]1CC[C@H](Oc2nc3cnc(OCC(F)F)c(F)c3s2)CC1 [Compound I-552]
49 | 196 nM | CC(=O)N[C@@H](C)CO[C@H]1CC[C@H](Oc2nc3ccc(OCC(F)F)nc3s2)CC1 [Compound I-553]
50 | 620 nM | CC(=O)N[C@@H](C)CO[C@H]1CC[C@H](Oc2ncc3cc(OCC(F)F)ccc3n2)CC1 [Compound I-554]
51 | 34 nM | CC(=O)N[C@@H](C)CO[C@H]1CC[C@H](Oc2ncc3c(Cl)c(OCC4CC4)ccc3n2)CC1 [Compound I-555]
52 | 105 nM | CC(=O)N[C@@H](C)CO[C@H]1CC[C@H](Oc2nc3ccc(Br)cc3n2C)CC1 [Compound I-556]

Row | IC50 | SMILES
53 | 216 nM | CC(=O)N[C@@H](C)CO[C@H]1CC[C@H](Oc2nc3cc(Br)ccc3n2C)CC1 [Compound I-557]
54 | 43 nM | CC(=O)N[C@@H](C)CO[C@H]1CC[C@H](Oc2nc3ccc(OCc4ccccc4)cc3n2C)CC1 [Compound I-558]
55 | 43 nM | CCOc1ccc2nc(O[C@H]3CC[C@H](OC[C@H](C)NC(C)=O)CC3)n(C)c2c1 [Compound I-559]
56 | 101 nM | CC(=O)N[C@@H](C)CO[C@H]1CC[C@H](Oc2nc3ccc(OC(C)C)cc3n2C)CC1 [Compound I-560]
57 | 104 nM | CC(=O)N[C@@H](C)CO[C@H]1CC[C@H](Oc2nc3ccc(OCC4CC4)cc3n2C)CC1 [Compound I-561]
58 | 350 nM | CCOc1ccc2nc(O[C@H]3CC[C@H](OC[C@H](C)NC(C)=O)CC3)n(C(C)C)c2c1 [Compound I-562]
59 | 101 nM | CCOc1cc2c(cn1)nc(O[C@H]1CC[C@H](OC[C@H](C)NC(C)=O)CC1)n2C [Compound I-563]
60 | 385 nM | CCOc1ccc2c(c1)nc(O[C@H]1CC[C@H](OC[C@H](C)NC(C)=O)CC1)n2C [Compound I-564]
61 | 304 nM | CC(=O)N[C@@H](C)CO[C@H]1CC[C@H](Oc2nc3cc(OC(C)C)ccc3n2C)CC1 [Compound I-566]
62 | 167 nM | CC(=O)N[C@@H](C)CO[C@H]1CC[C@H](Oc2nc3cc(OCC4CC4)ccc3n2C)CC1 [Compound I-567]
63 | 225 nM | CCOc1ccc2nc(O[C@H]3CC[C@H](OC[C@H](C)NC(C)=O)CC3)n(C3CC3)c2c1 [Compound I-568]
64 | 86 nM | CC(=O)N[C@@H](C)CO[C@H]1CC[C@H](Oc2nc3ccc(OCC(F)F)cc3n2C)CC1 [Compound I-569]
65 | 935 nM | COc1ccc2c(c1)nc(O[C@H]1CC[C@H](OC[C@H](C)NC(C)=O)CC1)n2C [Compound I-570]
66 | 166 nM | CC(=O)N[C@@H](C)CO[C@H]1CC[C@H](Oc2nc3ccc(OCC(F)(F)F)cc3n2C)CC1 [Compound I-571]
67 | 227 nM | CC(=O)N[C@@H](C)CO[C@H]1CC[C@H](Oc2nc3ccc(OC(F)(F)F)cc3n2C)CC1 [Compound I-572]
68 | 68 nM | CCCc1ccc2nc(O[C@H]3CC[C@H](OC[C@H](C)NC(C)=O)CC3)n(C)c2c1 [Compound I-573]
69 | 129 nM | CC(=O)N[C@@H](C)CO[C@H]1CC[C@H](Oc2nc3ccc(C4CC4)cc3n2C)CC1 [Compound I-574]
70 | 62 nM | CCSc1ccc2nc(O[C@H]3CC[C@H](OC[C@H](C)NC(C)=O)CC3)n(C)c2c1 [Compound I-577]
